Laboratory results reported in patent publication US9993570B2, “Radiolabeled tracers for poly (ADP-ribose) polymerase-1 (PARP-1), methods and uses therefor” (Washington University, priority 2014, dated 2018).

Key:
MDA-MB-231 tumors = test: microPET imaging with [18F]12, MDA-MB-231 tumors; type: in vivo, mice; conditions: baseline, 60 minute dynamic scan
Method: This example illustrates the visualization of tumor tissue in microPET in mice. MDA-MB-436 human breast cancer xenograft tumors in immune-deficient mice were visualized by PET using [^18F]12.
Tumor-bearing mice were placed in an induction chamber containing ˜2% isoflurane/oxygen and then secured to a custom double bed for placement of tail vein catheters; anesthesia was maintained via nose-cone at ˜1% isoflurane/oxygen for the dynamic imaging procedure. The mice were injected with 150-200 μCi of [^18F]12 and scanned for 0-60 min using Focus 220 and Inveon PET/CT scanners. The standard uptake values (SUVs) were generated from manually drawn regions of interests for tumors and surrounding ‘background’ tissue. Visualization of specific uptake was determined by comparison of baseline scans with images acquired by tracer injection 20 minutes after pre-treatment with the blocking agents olaparib (50 mg/kg, IP) or 12 (1 mg/kg, IP).
This example illustrates uptake of Compound 12 ([^18F]WC-4-138) in mice. Mature female athymic nude mice (Charles River Laboratories) were implanted with 10^6 SCC1 cells or 10^7 MDA-MB-231 cells into the mammary fat pads. Mice bearing SCC1 tumors were imaged at 5 weeks and mice bearing MDA-MB-231 cells were imaged at 2.5 weeks after implant. Mice were anesthetized with 2% isoflurane/oxygen and maintained at 1% isoflurane/oxygen via nose cone throughout the imaging procedure. Whole animal microCT images were acquired on an Inveon PET/CT scanner. The mice were injected via tail vein with 11.36±0.5 MBq (307±13 μCi) of [^18F]WC(4)-138 and underwent a 60 minute dynamic scan using Focus 220 or Inveon PET/CT scanners. The microPET and microCT images were coregistered using Integrated Research Workflow software (Siemens). Regions of interest were drawn over tumors to determine time activity curves. For drug treatment studies, animals reached intraperitoneal injections of 50 mg/kg olaparib or iniparib 30 minutes before imaging. Mice were imaged at baseline, or 30 minutes after IP injection of olaparib or iniparib. Arrows indicate location of tumors as identified on CT.
In FIG. 8, mice were imaged at baseline, or 30 minutes after IP injection of olaparib or iniparib. (A) The percent of injected dose per ml was calculated for each MDA/MB-231 tumor at baseline or after drug treatment. […] Tracer uptake was unchanged in iniparib-treated mice (p=0.1098 as determined by a paired t test, n=6 tumors).

[1] = tested on: head and neck cell lines SCC1 and SCC25; test: [18F]WC-4-138 uptake in cell culture, head and neck lines; type: cell-based; conditions: SCC1 and SCC25, incubation 5, 30 or 60 minutes, normalized to protein
Method: In these experiments, the head and neck squamous cell carcinoma lines SCC1, SCC15, and SCC25 (ATCC) were propagated in Dulbecco's Modified Eagle's Medium (DMEM, Gibco) supplemented with 10% Fetal Bovine Serum (FBS, Gibco), Penicillin-Streptomycin (P/S, Gibco), and 100 ng/ml hydrocortisone (Sigma-Aldrich). The small cell lung cancer lines NCI-h69 and NCI-h82 (ATCC) were propagated m RPMI Medium (Gibco) supplemented with 10% FBS and 1% P/S. The human breast cancer cell line MDA-MB-231 (ATCC) was propagated in Eagle's Minimum Essential Medium (Gibco) supplemented with 5% FBS, 2% Vitamins for MEM (Gibco), 1% 200 mM L-glutamine (Gibco), 1% 10 mM Non-Essential Amino Acid (NEAA, Gibco).
For each experimental replicate, approximately 1 μCi of [^18F]WC-4-138 was diluted in 1 ml of cell culture medium and added to 10^6 cells. After 5, 30, or 60 minutes, the medium was collected and cells were washed twice in 0.7 ml Phosphate Buffered Saline (PBS, Gibco). Adherent cells were collected by scraping the cell culture dish and transferring to a microfuge tube. Radioactivity was measured in the collected medium, PBS, or cell pellets. Protein from the cell pellet was quantified using a […]. All data were decay-corrected and normalized to total protein quantity in the cell pellet. For drug treatment studies, cells were incubated with 10 μM Olaparib or Iniparib twenty-hours prior to incubation with [^18F]WC-4-138.
The head and neck cell lines SCC1 and SCC25 constitutively take up small amounts of tracer, registering as 0.001-0.002 μCi/μg in the cell pellet (FIG. 5A). […] Radioactivity was measured in head and neck squamous cell cancer (HNSCC) lines (SCC1 and SCC25) or small cell lung cancer (SCLC) lines (NCI-h69 and NCI-h82) after incubation with [^18F]WC-4-138 for 5, 30, or 60 minutes (n=3 at each time point). […] PARP activity was measured in HNSCC or lung SCLC cells. (FIG. 5C-D) [^18F]WC-4-138 uptake was measured in HNSCC cell lines treated with olaparib or iniparib. […]

[2] = Metabolic stability of [18F]WC-4-138 in mice (percent parent by HPLC); type: in vivo; conditions: C57BL/6J mice
Method: In these experiments, the metabolic stability of [^18]-WC-4-138 was assessed after injecting 400 μCi into the tail veins of adult male C57BL/6J mice (Jackson Laboratory). Mice were sacrificed by cervical dislocation 5 or 30 minutes post-injection. […] The plasma was separated from the red blood cells by centrifugation at 14000 rpm. Plasma (100 μl) was mixed with acetonitrile at a 1:1.5 ratio and centrifuged at 14000 rpm. Radioactivity associated with the red blood cell pellet, whole plasma, and acetonitrile-soluble and insoluble fractions was measured. The liver of each animal was also collected at the indicated times and frozen on dry ice. Livers were homogenized in 2 ml acetonitrile and 1 ml of the homogenized liver was centrifuged at 14000 rpm. Radioactivity associated with the supernatant and pellet was measured. Acetonitrile-soluble plasma or liver supernatant (100 μl) was mixed at a 1:1 ratio with water and separated by reverse phase HPLC. The parent compound was also separated by HPLC as a reference. The radioactivity associated with each HPLC fraction was measured. The percent parent compound of each sample was calculated as the portion radioactivity associated with the HPLC fractions expected to contain the parent compound.

percent parent compound relative to the reference compound, blood ([2]; 5 minutes post-injection): 50%
percent parent compound relative to the reference compound, liver ([2]; 5 minutes post-injection): about 80%
percent parent compound relative to the reference compound, blood ([2]; 30 minutes post-injection): about 10%
percent parent compound relative to the reference compound, liver ([2]; 30 minutes post-injection): about 70%
SMILES: O=C1NCCn2c(-c3ccc(OCC[18F])cc3)nc3cccc1c32 [[^18F]12]
tracer uptake in MDA-MB-231 tumors (microPET images) (MDA-MB-231 tumors): abundantly taken up in tumors
tracer uptake in the cell pellet [1]: 0.001-0.002 μCi/μg
